Each molecule was assayed against Human DGAT2 (hDGAT2) (Homo sapiens (Human), UniProt Q96PD7) (assay: In vitro DGAT2 assay, IC50 determination with hDGAT2 membrane fraction). Conditions: geometric mean; background for complete inhibition of DGAT2 obtained with 50 μM (1R,2R)-2-({3′-Fluoro-4′-[(6-fluoro-1,3-benzothiazol-2-yl)amino]-1,1′-biphenyl-4-yl}carbonyl)cyclopentanecarboxylic acid; read-out: DGAT2 IC50.
Type: biochemical
Method: Recombinant baculovirus for the FLAG-tagged hDGAT2 was generated in SF9 insect cells using Bac-to-Bac baculovirus expression system (Invitrogen) according to the manufacturer's protocol. For the expression of hDGAT2, SF9 cells (20 L) grown in Sf900II media were infected with hDGAT2 baculovirus at a multiplicity of infection of 1 in a Wave Bioreactor System 20/50P wave bag (GE Healthcare). After 40 hours of infection, the cells were then harvested by centrifugation at 5,000×g. The cell pellets were washed by resuspending in phosphate buffered saline (PBS) and collected by centrifugation at 5,000×g. The cell paste was flash frozen in liquid N2 and stored at −80° C. until needed. All operations below were at 4° C. unless otherwise noted. The cells were resuspended in lysis buffer (50 mM Tris-HCl, pH 8.0, 250 mM sucrose) including 1 mM ethylenediaminetetraacetic acid (EDTA) and the complete protease inhibitor cocktail (Roche Diagnostics) at a ratio of 3 ml buffer per 1 g cell paste. The cells were lysed by dounce homogenizer. The cell debris was removed by centrifugation at 1,000×g for 20 min, and the supernatant was centrifuged at 100,000×g for 1 hour. The resulting pellet was rinsed three times by filling ultracentrifuge tubes to the top with ice cold PBS before decanting. The washed pellet was resuspended with gentle stirring for 1 hour in lysis buffer containing 8 mM 3-[(3-cholamidopropyl)dimethylammonio]-1-propanesulfonate (CHAPS) at a ratio of 1 mL buffer per 1 g of original cell paste and centrifuged again at 100,000×g for 1 hour. The resulting supernatant (hDGAT2 membrane fraction) was aliquotted, flash frozen in liquid N2, and stored at −80° C. until use.
To 1 μL of compounds dissolved in 100% DMSO and spotted at the bottom of each well, 5 μL of 0.04% bovine serum albumin (BSA) (fatty acid free, Sigma Aldrich) was added and the mixture was incubated at room temperature for 20 minutes. To this mixture, 10 μL of hDGAT2 membrane fraction (0.01 mg/mL) diluted in 100 mM Hepes-NaOH, pH 7.4, 20 mM MgCl2 containing 200 nM methyl arachidonyl fluorophosphonate (Cayman Chemical; dried from ethyl acetate stock solution under argon gas and dissolved in DMSO as 5 mM stock) was added. […] The reaction mixtures were incubated at room temperature for 40 min and the reactions were stopped by addition of 5 μL of 1% H3PO4. After the addition of 45 μL MicroScint-E (Perkin-Elmer), plates were sealed with Top Seal-A covers (Perkin-Elmer) and phase partitioning of substrates and products was achieved using a HT-91100 microplate orbital shaker (Big Bear Automation, Santa Clara, Calif.). Plates were centrifuged at 2,000×g for 1 min in an Allegra 6R Centrifuge (Beckman Coulter) and then were sealed again with fresh covers before reading in a 1450 Microbeta Wallac Trilux Scintillation Counter (Perkin Elmer). DGAT2 activity was measured by quantifying the generated product [^14C]tridecanoylglycerol in the upper organic phase.
Inhibitors were tested at eleven different concentrations to generate IC50 values for each compound. […] Results are reported as geometric mean IC50 values.

Chain of Human DGAT2 (hDGAT2) (Q96PD7 whole entry): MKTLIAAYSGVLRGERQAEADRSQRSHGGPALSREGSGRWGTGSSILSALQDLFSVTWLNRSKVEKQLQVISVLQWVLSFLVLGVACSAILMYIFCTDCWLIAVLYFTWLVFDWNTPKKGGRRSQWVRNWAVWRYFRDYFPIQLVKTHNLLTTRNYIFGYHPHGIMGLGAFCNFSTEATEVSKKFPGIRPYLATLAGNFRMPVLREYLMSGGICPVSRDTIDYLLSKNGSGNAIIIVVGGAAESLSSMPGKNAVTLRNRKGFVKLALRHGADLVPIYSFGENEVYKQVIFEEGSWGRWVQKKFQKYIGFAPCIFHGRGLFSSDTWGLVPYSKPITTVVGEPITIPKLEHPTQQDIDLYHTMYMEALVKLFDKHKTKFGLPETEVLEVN

Row | SMILES | IC50
1 | O=C([C@@H]1CCCN(c2ccc3nc([C@H]4C[C@H]4c4ccccc4)[nH]c3n2)C1)N1CCCC1 [Example 18, ((R)-1-(2-((1S,2R)-2-Phenylcyclopropyl)-3H-imidazo[4,5-b]pyridin-5-yl)piperidin-3-yl)(pyrrolidin-1-yl)methanone] | 196 nM
2 | O=C([C@@H]1CCCN(c2ccc3nc(-c4ccnc(C5CC5)n4)[nH]c3n2)C1)N1C[C@@H](F)[C@H](F)C1 [Example 68, ((R)-1-(2-(2-Cyclopropylpyrimidin-4-yl)-3H-imidazo[4,5-b]pyridin-5-yl)piperidin-3-yl)((3R,4R)-3,4-difluoropyrrolidin-1-yl)methanone] | 54.7 nM
3 | O=C([C@@H]1CCCN(c2ccc3nc(-c4cccc(C5CC5)n4)[nH]c3n2)C1)N1CCC(F)(F)C1 [Example 184, (R)-(1-(2-(6-Cyclopropylpyridin-2-yl)-3H-imidazo[4,5-b]pyridin-5-yl)piperidin-3-yl)(3,3-difluoropyrrolidin-1-yl)methanone] | 15.2 nM
4 | CC(C)(O)c1csc(-c2nc3ccc(N4CCC[C@@H](C(=O)N5CCCC5)C4)nc3[nH]2)n1 [Example 140, (R)-(1-(2-(4-(2-Hydroxypropan-2-yl)thiazol-2-yl)-3H-imidazo[4,5-b]pyridin-5-yl)piperidin-3-yl)(pyrrolidin-1-yl)methanone] | 207 nM
5 | FC(F)Oc1cccc(-c2nc3ccc(N4CCO[C@H](c5ccccn5)C4)nc3[nH]2)c1 [Example 145, (S)-4-(2-(3-(difluoromethoxy)phenyl)-3H-imidazo[4,5-b]pyridin-5-yl)-2-(pyridin-2-yl)morpholine] | 411 nM
6 | CCOC(=O)CCc1cccc(-c2nc3ccc(N4CCC[C@@H](C(=O)N5CCCC5)C4)nc3[nH]2)c1 [Example 128, (R)-Ethyl 3-(3-(5-(3-(pyrrolidine-1-carbonyl)piperidin-1-yl)-3H-imidazo[4,5-b]pyridin-2-yl)phenyl)propanoate] | 7.16 nM
7 | Cc1csc(-c2nc3ccc(N4CCC[C@@H](C(=O)N5CCCC5)C4)nc3[nH]2)n1 [Example 11, (R)-(1-(2-(4-Methylthiazol-2-yl)-3H-imidazo[4,5-b]pyridin-5-yl)piperidin-3-yl)(pyrrolidin-1-yl)methanone] | 35 nM
8 | O=C([C@@H]1CCCN(c2ccc3nc(-c4cccc(N5CCC5)n4)[nH]c3n2)C1)N1CCCC1 [Example 120, (R)-(1-(2-(6-(Azetidin-1-yl)pyridin-2-yl)-3H-imidazo[4,5-b]pyridin-5-yl)piperidin-3-yl)(pyrrolidin-1-yl)methanone] | 21.5 nM
9 | O=C([C@@H]1CCCN(c2ccc3nc(-c4cccc(-n5cccn5)c4)[nH]c3n2)C1)N1CCCC1 [Example 3, (R)-(1-(2-(3-(1H-Pyrazol-1-yl)phenyl)-3H-imidazo[4,5-b]pyridin-5-yl)piperidin-3-yl)(pyrrolidin-1-yl)methanone] | 4.82 nM
10 | COc1cccc(-c2nc3ccc(N4CCC[C@@H](C(=O)N5CCCC5)C4)nc3[nH]2)n1 [Example 37, (R)-(1-(2-(6-Methoxypyridin-2-yl)-3H-imidazo[4,5-b]pyridin-5-yl)piperidin-3-yl)(pyrrolidin-1-yl)methanone] | 12.6 nM
11 | O=C([C@@H]1CCCN(c2ccc3nc(C4(c5cnccn5)CC4)[nH]c3n2)C1)N1CCCC1 [Example 203, (R)-(1-(2-(1-(Pyrazin-2-yl)cyclopropyl)-3H-imidazo[4,5-b]pyridin-5-yl)piperidin-3-yl)(pyrrolidin-1-yl)methanone] | 176 nM
12 | COc1cccc(-c2nc3ccc(N4CCC[C@@H](C(=O)N5CCCC5)C4)nc3[nH]2)c1 [Example 36, (R)-(1-(2-(3-Methoxyphenyl)-3H-imidazo[4,5-b]pyridin-5-yl)piperidin-3-yl)(pyrrolidin-1-yl)methanone] | 20.7 nM
13 | C[C@@H]1CCN(c2ncc3nc(C4(n5cccn5)CC4)[nH]c3n2)C[C@@H]1C(=O)N1CCCC1 [Example 207, ((3R,4R)-1-(8-(1-(1H-Pyrazol-1-yl)cyclopropyl)-9H-purin-2-yl)-4-methylpiperidin-3-yl)(pyrrolidin-1-yl)methanone] | 702 nM
14 | O=C([C@@H]1CCCN(c2ncc3nc(C4(n5cccn5)CC4)[nH]c3n2)C1)N1CCCC1 [Example 210, (R)-(1-(8-(1-(1H-Pyrazol-1-yl)cyclopropyl)-9H-purin-2-yl)piperidin-3-yl)(pyrrolidin-1-yl)methanone] | 342 nM
15 | O=C([C@@H]1CCCN(c2ccc3nc(C4(c5coc(C6CC6)n5)CC4)[nH]c3n2)C1)N1CCCC1 [Example 195, (R)-(1-(2-(1-(2-cyclopropyloxazol-4-yl)cyclopropyl)-3H-imidazo[4,5-b]pyridin-5-yl)piperidin-3-yl)(pyrrolidin-1-yl)methanone] | 142 nM
16 | O=C([C@@H]1CCCN(c2ccc3nc(C4(n5cccn5)CCC4)[nH]c3n2)C1)N1CCCC1 [Example 80, (R)-(1-(2-(1-(1H-Pyrazol-1-yl)cyclobutyl)-3H-imidazo[4,5-b]pyridin-5-yl)piperidin-3-yl)(pyrrolidin-1-yl)methanone] | 1400 nM

More lines, now with the values ahead:

Row | IC50 | SMILES
17 | 16500 nM | CN(C)C(=O)[C@@H]1CN(c2ccc3nc(-c4ccnc(C5CC5)n4)[nH]c3n2)CC(F)(F)C1 [Example 165, (S)-1-(2-(2-cyclopropylpyrimidin-4-yl)-3H-imidazo[4,5-b]pyridin-5-yl)-5,5-difluoro-N,N-dimethylpiperidine-3-carboxamide]
18 | 531 nM | O=C([C@@H]1CCCN(c2ccc3nc(C4(c5cccnn5)CC4)[nH]c3n2)C1)N1CCCC1 [Example 222, (R)-(1-(2-(1-(Pyridazin-3-yl)cyclopropyl)-3H-imidazo[4,5-b]pyridin-5-yl)piperidin-3-yl)(pyrrolidin-1-yl)methanone]
19 | 401 nM | O=C([C@H]1CN(c2ccc3nc(-c4cncc(C5CC5)n4)[nH]c3n2)CCO1)N1CCCC1 [Example 146, (R)-(4-(2-(6-Cyclopropylpyrazin-2-yl)-3H-imidazo[4,5-b]pyridin-5-yl)morpholin-2-yl)(pyrrolidin-1-yl)methanone]
20 | 161 nM | c1cc(-c2nc3ccc(N4CCC[C@H](c5nnc6n5CCC6)C4)nc3[nH]2)nc(C2CC2)c1 [Example 171, (S)-2-(6-cyclopropylpyridin-2-yl)-5-(3-(6,7-dihydro-5H-pyrrolo[2,1-c][1,2,4]triazol-3-yl)piperidin-1-yl)-3H-imidazo[4,5-b]pyridine]
21 | 9.55 nM | O=C([C@@H]1CCCN(c2ccc3nc(-c4nc(C5CC5)cs4)[nH]c3n2)C1)N1CCCC1 [Example 84, (R)-(1-(2-(4-Cyclopropylthiazol-2-yl)-3H-imidazo[4,5-b]pyridin-5-yl)piperidin-3-yl)(pyrrolidin-1-yl)methanone]
22 | 190 nM | O=C([C@@H]1CCCN(c2ccc3nc(C4(c5cccnc5)CCC4)[nH]c3n2)C1)N1CCCC1 [Example 88, (R)-(1-(2-(1-(Pyridin-3-yl)cyclobutyl)-3H-imidazo[4,5-b]pyridin-5-yl)piperidin-3-yl)(pyrrolidin-1-yl)methanone]
23 | 731 nM | CC(C)(C)c1nc2ccc(N3CCC[C@@H](C(=O)N4CCCC4)C3)nc2[nH]1 [Example 24, (R)-(1-(2-tert-Butyl-3H-imidazo[4,5-b]pyridin-5-yl)piperidin-3-yl)(pyrrolidin-1-yl)methanone]
24 | 858 nM | c1ccc(C2CCCN(c3ccc4nc(-c5ccnc(C6CC6)n5)[nH]c4n3)C2)nc1 (centres unmarked) [Example 59, 2-(2-Cyclopropylpyrimidin-4-yl)-5-(3-(pyridin-2-yl)piperidin-1-yl)-3H-imidazo[4,5-b]pyridine]
25 | 2280 nM | O=C([C@@H]1CCCN(c2ccc3nc(C(F)(F)c4ccccc4)[nH]c3n2)C1)N1CCCC1 [Example 166, (R)-(1-(2-(Difluoro(phenyl)methyl)-3H-imidazo[4,5-b]pyridin-5-yl)piperidin-3-yl)(pyrrolidin-1-yl)methanone]

Same assay, conditions: read-out: DGAT2 IC50

Row | IC50 | SMILES
26 | 35.6 nM | O=C([C@@H]1CCCN(c2ccc3nc(-c4cccc(OC(F)F)c4)[nH]c3n2)C1)N1CCOCC1 [Example 155, (R)-(1-(2-(3-(Difluoromethoxy)phenyl)-3H-imidazo[4,5-b]pyridin-5-yl)piperidin-3-yl)(morpholino)methanone]
